# Reference: paper PMC13108699, “Mass balance and metabolite profiling of ^14C-Zalunfiban in humans following single-dose subcutaneous administration” (Xenobiotica; the fate of foreign compounds in biological …, 2025)
# Where two headings read alike, the source gives them in different places.
# Legend:
# [1] = Whole blood zalunfiban and M1 concentrations (LC-MS/MS) and non-compartmental PK, phase 1 mass balance study; format: in vivo, human; conditions: for Cmax / Tmax / AUC(0-inf) / AUC(0-t) / k el / Vd/F / half-life: male, human, whole blood; for AUC(0-inf): read-out: AUC0-inf, whole blood zalunfiban; for AUC(0-t): read-out: AUC0-last, whole blood zalunfiban; for k el: read-out: Kel, whole blood zalunfiban (converted); for Vd/F: read-out: Vz/F, whole blood zalunfiban; for half-life: read-out: t1/2, whole blood zalunfiban (converted)
# Text: This was a Phase 1, single-centre, open-label, non-controlled, mass balance and metabolite profiling study of ^14C-radiolabeled zalunfiban in health male volunteers (NCT04284995). The planned participant enrolment size was 8, with 2 additional alternate participants available on the morning of dosing. Following a 28-day screening period, all eligible participants were admitted to the research unit the evening before dosing. After fasting overnight, participants completed a standard breakfast prior to dosing on study day 1. After dosing, subjects fasted for 4 h. Fluids were permitted ad libitum starting 1-hour after dosing. The investigational product (IP) was injected SC on study day 1 and participants were housed for 11 days, which is past the final 240-hour sampling time, and then discharged following final evaluation. The clinical study was conducted at the Pharmaron Clinical Pharmacology Centre (Baltimore, MD) and the study protocol, consent forms and regulatory documents were reviewed and approved by the Advarra Institutional Review Board (Columbia, MD).
# All participants received the same fixed mass dose of SC 9.5 mg ^14C-zalunfiban (5 μCi), in 0.5 mL of formulation solution. This zalunfiban dose was chosen to both ensure participant safety and to make certain the study results were clinically relevant. For the latter, by strict inclusion of participants with a body weight within the range of 73–99 kg, the zalunfiban doses were no higher than the highest administered in the currently ongoing Phase 3 study, which includes three groups of 0.110 mg/kg zalunfiban, 0.130 mg/kg zalunfiban, and placebo ([NIH 2025]). The ^14C radiolabel dose of 5 μCi presented minimal radiation risk to healthy subjects while providing a high likelihood of meeting the study objectives.
# Serial blood samples were collected to determine zalunfiban and its major metabolite des-gly-zalunfiban (M1) whole blood concentrations, additional whole blood metabolite profiling, and total whole blood ^14C at pre dose (−60 min); 5, 10, 15, 30 and 45 min; and 1, 1.5, 2, 2.5, 3, 4, 6, 8, 12, 16, 24, 36, 48, 72, 96, 120, 144, 168, 192, 216 and 240 h after dosing. Blood samples were taken via an indwelling IV catheter or by direct venipuncture into designated blood collection tubes, with K2 EDTA used as an anticoagulant. Study samples were diluted immediately after blood collection, at a ratio of 1:4 using prechilled 30% acetonitrile, then separated into storage tubes and immediately frozen at −80°C for shipment to the analytical laboratory. At the laboratory, extraction of ^14C-zalunfiban from whole blood was achieved by repeated microcentrifugation, vortex mixing, and harvesting to collect analytes (see Metabolite profiling and excretion for more details).
# Zalunfiban and M1 whole blood concentrations were measured using a validated LC-MS/MS method in compliance with the ICH-M10 guideline. The method utilised a Sciex 5500 mass spectrometer, Shimadzu LC30AD HPLC system, and a Shimadzu AD multiplate autosampler. Mobile phase A (MPA) was 10 mM ammonium acetate with 0.1% ammonium hydroxide and mobile phase B (MPB) was 10 mM ammonium acetate with acetonitrile:ammonium hydroxide. An Acquity UPLC BEH Hilic 1.7 micrometer column (Waters Corporation) was used at a temperature of 50 °C. The column flow rate was 0.4 mL/min and injection volumes were 2.0 microliters. The gradient for analytical pumps was set at 30% MAP and 70% MPB.
# For whole blood LC-MS/MS the calibration ranges were 5.00–500.00 ng/mL for zalunfiban and 25.00–2500.00 ng/mL for M1. Zalunfiban and M1 sample concentrations below 5 ng/mL and 25 ng/mL, respectively, were reported as below the lower limit of quantification (<LLOQ).
# Zalunfiban and whole blood radioactivity concentrations were used to calculate PK parameters using standard non-compartmental analysis (NCA) methods using Phoenix WinNonlin software (Phoenix, Princeton, NJ). […]
# [2] = Cumulative excretion of ^14C in urine and faeces (mass balance); format: in vivo, human
# Text: This was a Phase 1, single-centre, open-label, non-controlled, mass balance and metabolite profiling study of ^14C-radiolabeled zalunfiban in health male volunteers (NCT04284995). The planned participant enrolment size was 8, with 2 additional alternate participants available on the morning of dosing. Following a 28-day screening period, all eligible participants were admitted to the research unit the evening before dosing. After fasting overnight, participants completed a standard breakfast prior to dosing on study day 1. After dosing, subjects fasted for 4 h. Fluids were permitted ad libitum starting 1-hour after dosing. […]
# Whole blood samples were analysed using accelerator mass spectrometry (AMS). […] Each sample was counted for at least 10 min or until the 2%2σ terminator was reached. […] The CO2 produced was trapped in a Carbosorb/Permafluor 2:1 v/v (Perkin Elmer, Waltham MA) to determine total carbon content and the ^14C:^12C ratio and then analysed by AMS.
# A carbon content correction based upon pre-dose whole blood samples and urine samples was applied to all post dose samples. As the carbon content of homogenised faeces can be variable, all homogenised faeces samples were analysed by C,H,N using a Thermo Scientific FlashSmart elemental analyser (Waltham, MA). Urea standards were used to calibrate and normalise the C,H,N, and the carbon content of each sample was determined. […]
# [3] = geometric mean, n=8, single SC 9.5 mg
# [4] = sc, 9.5 mg, geometric mean, n=8, single SC 9.5 mg
# [5] = sc, 9.5 mg, mean, n=8, single SC 9.5 mg
# [6] = sc, 9.5 mg, median, n=8, single SC 9.5 mg
smiles,measurement,setting,value
"NCC(=O)Nc1cncc(-c2nn3c(=O)cc(N4CCNCC4)nc3s2)c1 [Zalunfiban, 2-amino-N-{5-[5-oxo-7-(piperazin-1-yl)-5H-[1,3,4]thia-diazolo[3,2-a]pyrimidin-2-yl]pyridin-3-yl}acetamide]",Time of last measurable whole blood zalunfiban concentration,[1]; all participants,≤ 4 h
same,"CL/F, whole blood zalunfiban",[1]; [3],80.7 L/h
same,"tlast, whole blood zalunfiban",[1]; [3],3.4 h
same,Cmax,[1]; [4],94.6 ng/mL
same,Tmax,[1]; [4],15 min
same,AUC(0-inf),[1]; [4],116 ng·h/mL
same,AUC(0-t),[1]; [4],107 ng·h/mL
same,k el,[1]; [4],0.00021 s⁻¹
same,Vd/F,[1]; [4],107 L
same,half-life,[1]; [4],55.2 min
same,half-life,"[1]; sc, 9.5 mg, mean terminal half-life, n=8, single SC 9.5 mg",~60 min
same,Tmax,[1]; [5],15.6 min
same,Cmax,"[1]; sc, 9.5 mg, mean, n=8, single SC 9.5 mg ^14C-zalunfiban",95.2 ng/mL
same,AUC(0-inf),[1]; [5],118 ng·h/mL
same,AUC(0-t),[1]; [5],109 ng·h/mL
same,k el,[1]; [5],0.000218 s⁻¹
same,Vd/F,[1]; [5],114 L
same,Cmax,[1]; [6],96.9 ng/mL
same,Tmax,[1]; [6],~15 min
same,AUC(0-inf),[1]; [6],123 ng·h/mL
same,AUC(0-t),[1]; [6],114 ng·h/mL
same,k el,[1]; [6],0.000229 s⁻¹
same,half-life,[1]; [6],50.4 min
same,Tmax,"[1]; subcutaneous, 9.5 mg, median",15 min
same,Vd/F,"[1]; median, n=8, single SC 9.5 mg",96.6 L
same,"CL/F, whole blood zalunfiban","[1]; mean, n=8, single SC 9.5 mg",81.8 L/h
same,"tlast, whole blood zalunfiban","[1]; mean, n=8, single SC 9.5 mg",3.4 h
same,"CL/F, whole blood zalunfiban","[1]; median, n=8, single SC 9.5 mg",76.3 L/h
same,"tlast, whole blood zalunfiban","[1]; median, n=8, single SC 9.5 mg",3.5 h
same,Radioactivity recovered in urine and faeces,"[2]; by 48 h, on average",more than 80%
same,Cumulative percentage of recovered ^14C (urine plus faeces),"[2]; by 240 h post-dose, range over participants, listed as 14C-zalunfiban",> 90%
